Source: publication PMC9863764, “Roles of Human Liver Cytochrome P450 Enzymes in Tenatoprazole Metabolism” (Pharmaceutics, 2022)
Several values for one entry are separate records, joined by “and”; a condition that tells them apart may be missing. Equal values may be shown once.

Tests used:
human CYP2C19 [1] = target: T1, human CYP2C19 (Homo sapiens, UniProt P33261); assay: Steady-state kinetics of tenatoprazole oxidation by recombinant CYP2C19; assay type: in vitro ADME
T1 construct: made in house; host or cells: Escherichia coli (membrane fractions)
Procedure: Pooled liver microsomes from human samples were obtained from ThermoFisher Scientific (Waltham, MA, USA). […] Membrane fractions expressing both P450 and CPR of E. coli were prepared as described previously and were used for the catalytic activity assays. […] The reaction was started by adding NGS and the incubation was continued for the indicated time at 37 °C. Incubation was then stopped by adding ice-chilled ethyl acetate (0.50 mL) and omeprazole (IS) was added to a final concentration of 20 μM. […] Phenomenex, Torrance, CA, USA). The products formed were analyzed by HPLC at […]. […] The kinetic parameters (kcat and Km) were determined by using a Michaelis-Menten nonlinear regression analysis with GraphPad Prism (GraphPad Software, San Diego, CA, USA).

[2] = test system: human liver microsomes (HLMs); assay: Time course of oxidation of tenatoprazole and tenatoprazole sulfide by human liver microsomes (HPLC); assay type: in vitro ADME; conditions: for tenatoprazole remained: substrate tenatoprazole 500 μM
Procedure: A racemate of tenatoprazole was used in this work because the chiral tenatoprazoles currently are not commercially available. The reactions using HLMs contained incubation at 37 °C in 0.25 mL mixtures containing P450 (0.5 mg protein/mL) in 100 mM potassium phosphate buffer (pH 7.4), an NADPH-generating system (NGS, final concentration of 10 mM glucose-6-phosphate, 0.50 mM NADP^+, 1.0 IU yeast glucose-6-phosphate dehydrogenase per mL), and 0.1 mM of tenatoprazole or tenatoprazole sulfide. Incubations generally were performed for 2 h in the presence or absence of the NGS. Tenatoprazole and its metabolites were extracted twice using cold ethyl acetate as an organic solvent. Then centrifugation (1000× g, 20 min) was done to separate the organic layer from the aqueous layer. Omeprazole was added to this solution as an internal standard (IS) at a final 20 μM concentration. The organic layer was concentrated under nitrogen gas stream. The dried residues were then dissolved in the mobile phase (180 μL) and 30 μL was injected onto the column.
High-performance liquid chromatography (HPLC) was performed on the basis of a previously developed method for tenatoprazole and its metabolites, as described elsewhere. The analytical column was a Gemini C18 column (4.6 × 150 mm, 5 μm; Phenomenex), and the HPLC mobile phase consisted of acetonitrile and 5 mM potassium phosphate buffer (pH 7.3) (25:75, v/v). The substrate and its metabolites were detected at A302. The HPLC profile of the authentic compounds (i.e., tenatoprazole and its metabolites) were measured to compare to identify the major metabolites of tenatoprazole and tenatoprazole sulfide produced by HLMs.
The time course of the oxidation of tenatoprazole and tenatoprazole sulfide by HLMs (0.5 mg protein/mL) was analyzed to the estimated yield of metabolites and percentage of each metabolite using 0.60 mM substrate in 0.25 mL of 0.10 M potassium phosphate buffer (pH 7.4). After NGS was added to initiate the reaction, the samples were incubated for the designated time (i.e., 2, 5, 10, and 30 min, and 1, 2, 4, 8, 12, and 24 h) at 37 °C. Product formation was quantified using HPLC analysis, as mentioned above.
Calibration standard curves of tenatoprazole were made using a blank control sample (a reaction mixture without substrate and IS) and 12 samples containing tenatoprazole and omeprazole (IS) covering the concentration ranges of 1–500 μM, as described previously. The peak area ratio of tenatoprazole to IS was linear with respect to the analyte concentration over the range of 1–500 μM. The metabolites were quantified by comparing the peak areas of each metabolite to the mean peak areas of the IS (20 μM omeprazole).

[3] = set-up: method as in PMID 23205582; conditions: compared with other PPIs such as lansoprazole and omeprazole; cited from earlier work
[4] = set-up: method as in PMID 27640009; conditions: neutral pH; cited from earlier work
CYP2A6 = target: T2, CYP2A6 (Homo sapiens, UniProt P11509); assay: Tenatoprazole oxidation by recombinant CYP2A6; assay type: in vitro ADME; conditions: substrate tenatoprazole 0.10 mM, 0.20 μM CYP2A6; no apparent formation
T2 construct: made in house; host or cells: Escherichia coli (membrane fractions)
T2 sequence (P11509 1-494): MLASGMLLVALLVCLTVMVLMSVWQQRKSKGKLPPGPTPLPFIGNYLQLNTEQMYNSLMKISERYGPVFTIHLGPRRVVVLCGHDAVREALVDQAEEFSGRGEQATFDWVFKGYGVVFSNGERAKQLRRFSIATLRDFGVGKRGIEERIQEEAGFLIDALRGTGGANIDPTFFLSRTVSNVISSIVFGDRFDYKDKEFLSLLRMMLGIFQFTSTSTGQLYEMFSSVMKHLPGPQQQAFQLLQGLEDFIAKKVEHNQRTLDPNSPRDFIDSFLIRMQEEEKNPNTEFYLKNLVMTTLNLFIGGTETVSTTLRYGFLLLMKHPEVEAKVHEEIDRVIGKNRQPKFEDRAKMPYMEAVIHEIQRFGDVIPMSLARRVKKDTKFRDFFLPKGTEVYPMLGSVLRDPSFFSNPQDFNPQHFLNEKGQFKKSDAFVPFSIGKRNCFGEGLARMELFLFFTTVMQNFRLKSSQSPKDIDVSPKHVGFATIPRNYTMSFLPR
Procedure: (§1) Pooled liver microsomes from human samples were obtained from ThermoFisher Scientific (Waltham, MA, USA). Recombinant human P450s were heterologously expressed in Escherichia coli with a pCW vector containing human P450 cDNA (CYP 3A4, 2C9, 2C19, 1A2, 1B1, 2E1, 2D6, and 2A6) and rat NADPH-P450 reductase (CPR). Membrane fractions expressing both P450 and CPR of E. coli were prepared as described previously and were used for the catalytic activity assays.
(§2) The reaction mixture included 0.20 μM P450, 0.40 μM CPR, and tenatoprazole (0.10 mM) in 0.25 mL of 0.10 M potassium phosphate buffer (pH 7.4). The reaction was started by adding NGS and the incubation was continued for the indicated time at 37 °C. Incubation was then stopped by adding ice-chilled ethyl acetate (0.50 mL) and omeprazole (IS) was added to a final concentration of 20 μM. The mixtures were vortexed for 2 min, centrifuged at 1000× g for 20 min, and then the organic layer was taken for drying under nitrogen gas stream. The residues were dissolved in 180 μL of HPLC mobile phase and 30 μL was injected onto a Gemini C18 column (4.6 × 150 mm, 5 μm; Phenomenex, Torrance, CA, USA). The products formed were analyzed by HPLC at A302. The HPLC profile of the authentic chemicals (i.e., tenatoprazole, tenatoprazole sulfide, and their metabolites) were used to identify the major metabolites of tenatoprazole and tenatoprazole sulfide produced by the recombinant P450s.
(§3) Figure S6. HPLC analyses of the products derived from the oxidation of tenatoprazole catalyzed by recombinant human P450s. The reaction mixture included 0.20 μM P450, 0.40 μM CPR, and 0.10 mM tenatoprazole in 0.25 mL of potassium phosphate buffer (0.10 M, pH 7.4). The reaction was started by adding an NGS at 37 °C for 60 min. (A) CYP1A2; (B) CYP1B1; (C) CYP2A6; (D) CYP2C9; (E) CYP2D6; (F) CYP2E1. The arrows with solid and broken lines indicate the retention times of 5’-OH tenatoprazole (6.6 min) and 5’-OH tenatoprazole sulfide (8.4 min), respectively.
(§4) (1 picture or pasted object on this page, not shown here)

CYP2D6 = target: T3, CYP2D6 (Homo sapiens, UniProt P10635); assay: Tenatoprazole oxidation by recombinant CYP2D6; assay type: in vitro ADME; conditions: substrate tenatoprazole 0.10 mM, 0.20 μM CYP2D6
T3 construct: made in house; host or cells: Escherichia coli (membrane fractions)
Procedure: as §1
as §2, with “The HPLC profile of the authentic chemicals (i.e., tenatoprazole, tenatoprazole sulfide, and their metabolites) were used to identify the major metabolites of tenatoprazole and tenatoprazole sulfide produced by the recombinant P450s.” left out

CYP1A2 = target: T4, CYP1A2 (Homo sapiens, UniProt P05177); assay: Tenatoprazole oxidation by recombinant CYP1A2; assay type: in vitro ADME; conditions: substrate tenatoprazole 0.10 mM, 0.20 μM CYP1A2; no apparent formation
T4 construct: made in house; host or cells: Escherichia coli (membrane fractions)
T4 sequence (P05177 1-516): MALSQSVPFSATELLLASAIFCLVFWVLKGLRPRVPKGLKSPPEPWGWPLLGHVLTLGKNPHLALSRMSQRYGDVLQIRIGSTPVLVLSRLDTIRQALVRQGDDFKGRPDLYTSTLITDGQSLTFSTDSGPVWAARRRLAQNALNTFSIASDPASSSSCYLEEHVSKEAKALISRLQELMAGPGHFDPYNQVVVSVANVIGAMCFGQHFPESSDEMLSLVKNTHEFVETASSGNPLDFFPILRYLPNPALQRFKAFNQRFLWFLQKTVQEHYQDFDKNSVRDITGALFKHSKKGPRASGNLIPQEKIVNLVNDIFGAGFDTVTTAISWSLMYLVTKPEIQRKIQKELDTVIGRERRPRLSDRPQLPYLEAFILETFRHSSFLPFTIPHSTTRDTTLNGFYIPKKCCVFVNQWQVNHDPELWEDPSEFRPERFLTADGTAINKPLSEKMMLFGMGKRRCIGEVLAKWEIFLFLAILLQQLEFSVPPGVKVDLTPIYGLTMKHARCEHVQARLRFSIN
Procedure: as §1, §2, §3, §4

CYP2C9 = target: T5, CYP2C9 (Homo sapiens, UniProt P11712); assay: Tenatoprazole oxidation by recombinant CYP2C9; assay type: in vitro ADME; conditions: substrate tenatoprazole 0.10 mM, 0.20 μM CYP2C9
T5 construct: made in house; host or cells: Escherichia coli (membrane fractions)
Procedure: as §1
as §2, with “The HPLC profile of the authentic chemicals (i.e., tenatoprazole, tenatoprazole sulfide, and their metabolites) were used to identify the major metabolites of tenatoprazole and tenatoprazole sulfide produced by the recombinant P450s.” left out

CYP2E1 = target: T6, CYP2E1 (Homo sapiens, UniProt P05181); assay: Tenatoprazole oxidation by recombinant CYP2E1; assay type: in vitro ADME; conditions: substrate tenatoprazole 0.10 mM, 0.20 μM CYP2E1; no apparent formation
T6 construct: made in house; host or cells: Escherichia coli (membrane fractions)
Procedure: as §1, §2, §3, §4

CYP1B1 = target: T7, CYP1B1 (Homo sapiens, UniProt Q16678); assay: Tenatoprazole oxidation by recombinant CYP1B1; assay type: in vitro ADME; conditions: substrate tenatoprazole 0.10 mM, 0.20 μM CYP1B1; no apparent formation
T7 construct: made in house; host or cells: Escherichia coli (membrane fractions)
T7 sequence (Q16678 1-543): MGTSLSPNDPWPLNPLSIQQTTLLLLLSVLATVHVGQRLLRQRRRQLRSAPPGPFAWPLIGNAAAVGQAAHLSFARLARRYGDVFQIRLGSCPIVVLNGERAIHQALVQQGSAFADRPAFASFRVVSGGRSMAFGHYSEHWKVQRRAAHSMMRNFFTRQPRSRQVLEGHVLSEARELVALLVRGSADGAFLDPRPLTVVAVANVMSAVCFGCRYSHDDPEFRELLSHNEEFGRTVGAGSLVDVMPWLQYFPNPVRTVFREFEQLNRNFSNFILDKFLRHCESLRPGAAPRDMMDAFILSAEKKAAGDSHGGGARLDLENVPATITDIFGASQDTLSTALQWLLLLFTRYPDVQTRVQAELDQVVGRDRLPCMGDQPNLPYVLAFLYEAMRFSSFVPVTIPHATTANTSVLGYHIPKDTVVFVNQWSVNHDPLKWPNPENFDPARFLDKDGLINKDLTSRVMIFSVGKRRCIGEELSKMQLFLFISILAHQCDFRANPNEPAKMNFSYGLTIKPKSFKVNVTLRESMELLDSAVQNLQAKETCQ
Procedure: as §1, §2, §3, §4

human CYP3A4 = target: T8, human CYP3A4 (Homo sapiens, UniProt P08684); assay: Sulfoxidation of tenatoprazole sulfide by recombinant CYP3A4 (chiral chromatography); assay type: in vitro ADME; conditions: substrate tenatoprazole sulfide, recombinant CYP3A4, chiral chromatography; label = product formed
T8 construct: made in house; host or cells: Escherichia coli (membrane fractions)
Procedure: The sulfoxidation reaction of tenatoprazole sulfide by CYP3A4 was measured by chiral chromatography. […] The reaction was initiated by adding NGS at 37 °C. […] After the residues were solubilized in 180 μL mobile phase, 30 μL samples were injected onto a Chiralpak AD column (4.6 × 150 mm, 10 μm; Daicel Corporation, Osaka, Japan) with a hexane-ethanol mixture (30:70, v/v) as the mobile phase. The products formed were analyzed by HPLC at […]. […] The kinetic parameters (kcat and Km) were determined by using a Michaelis-Menten nonlinear regression analysis with GraphPad Prism (GraphPad Software, San Diego, CA, USA).

human CYP2C19 [5] = target: T1, human CYP2C19; set-up: method as in earlier work; conditions: in vitro; cited from earlier work

T1 sequence (P33261 whole entry): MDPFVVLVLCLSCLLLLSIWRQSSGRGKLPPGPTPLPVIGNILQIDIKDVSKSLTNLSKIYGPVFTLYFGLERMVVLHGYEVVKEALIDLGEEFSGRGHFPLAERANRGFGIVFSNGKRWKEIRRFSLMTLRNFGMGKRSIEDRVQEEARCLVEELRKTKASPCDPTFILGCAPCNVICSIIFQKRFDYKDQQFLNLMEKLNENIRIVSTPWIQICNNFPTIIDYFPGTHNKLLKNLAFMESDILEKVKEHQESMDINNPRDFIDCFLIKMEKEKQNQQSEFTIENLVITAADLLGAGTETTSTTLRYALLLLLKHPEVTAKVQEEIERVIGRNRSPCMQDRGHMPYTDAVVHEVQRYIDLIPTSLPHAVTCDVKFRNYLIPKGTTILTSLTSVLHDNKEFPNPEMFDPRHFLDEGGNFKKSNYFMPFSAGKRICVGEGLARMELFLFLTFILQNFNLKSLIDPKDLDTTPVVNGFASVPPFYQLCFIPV
T8 sequence (P08684 whole entry): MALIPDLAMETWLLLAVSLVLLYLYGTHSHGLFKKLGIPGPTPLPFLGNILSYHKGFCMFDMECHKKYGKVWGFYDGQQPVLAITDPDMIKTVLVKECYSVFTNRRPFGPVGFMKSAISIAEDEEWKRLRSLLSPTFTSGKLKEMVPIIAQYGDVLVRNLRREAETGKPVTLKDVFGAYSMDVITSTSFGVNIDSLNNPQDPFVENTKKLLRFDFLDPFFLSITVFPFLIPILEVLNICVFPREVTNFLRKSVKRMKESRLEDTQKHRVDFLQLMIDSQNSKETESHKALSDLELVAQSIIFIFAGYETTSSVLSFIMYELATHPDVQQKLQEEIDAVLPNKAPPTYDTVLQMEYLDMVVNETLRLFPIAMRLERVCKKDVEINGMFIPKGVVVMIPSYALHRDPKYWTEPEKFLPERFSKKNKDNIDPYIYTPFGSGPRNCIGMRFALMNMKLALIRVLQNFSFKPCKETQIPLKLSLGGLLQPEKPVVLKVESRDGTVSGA
T5 sequence (P11712 whole entry): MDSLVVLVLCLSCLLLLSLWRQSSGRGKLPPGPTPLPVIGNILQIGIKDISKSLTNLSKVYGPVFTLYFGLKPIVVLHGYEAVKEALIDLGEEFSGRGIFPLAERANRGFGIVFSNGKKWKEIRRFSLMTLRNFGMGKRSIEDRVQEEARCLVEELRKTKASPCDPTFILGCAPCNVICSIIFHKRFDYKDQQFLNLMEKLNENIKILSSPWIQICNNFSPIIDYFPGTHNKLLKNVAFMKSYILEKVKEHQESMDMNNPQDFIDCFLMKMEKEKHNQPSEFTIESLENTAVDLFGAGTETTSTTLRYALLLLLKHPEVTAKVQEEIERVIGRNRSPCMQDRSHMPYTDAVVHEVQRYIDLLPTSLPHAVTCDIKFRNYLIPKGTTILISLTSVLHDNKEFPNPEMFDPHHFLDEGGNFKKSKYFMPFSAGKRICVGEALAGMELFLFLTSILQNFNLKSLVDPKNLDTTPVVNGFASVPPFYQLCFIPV
T3 sequence (P10635 whole entry): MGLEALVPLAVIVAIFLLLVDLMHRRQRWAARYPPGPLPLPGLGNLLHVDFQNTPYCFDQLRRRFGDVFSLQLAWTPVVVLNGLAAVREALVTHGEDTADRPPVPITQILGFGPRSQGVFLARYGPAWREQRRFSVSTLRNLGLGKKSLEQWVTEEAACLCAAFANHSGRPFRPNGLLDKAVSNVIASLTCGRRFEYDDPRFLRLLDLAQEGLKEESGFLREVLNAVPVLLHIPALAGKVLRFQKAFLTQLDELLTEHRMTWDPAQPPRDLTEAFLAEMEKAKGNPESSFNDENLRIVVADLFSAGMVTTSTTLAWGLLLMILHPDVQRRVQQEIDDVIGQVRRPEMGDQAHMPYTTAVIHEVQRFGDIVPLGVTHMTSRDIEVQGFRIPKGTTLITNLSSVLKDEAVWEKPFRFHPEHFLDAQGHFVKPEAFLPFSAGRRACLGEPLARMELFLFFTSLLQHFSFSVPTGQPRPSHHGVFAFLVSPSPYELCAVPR
T6 sequence (P05181 whole entry): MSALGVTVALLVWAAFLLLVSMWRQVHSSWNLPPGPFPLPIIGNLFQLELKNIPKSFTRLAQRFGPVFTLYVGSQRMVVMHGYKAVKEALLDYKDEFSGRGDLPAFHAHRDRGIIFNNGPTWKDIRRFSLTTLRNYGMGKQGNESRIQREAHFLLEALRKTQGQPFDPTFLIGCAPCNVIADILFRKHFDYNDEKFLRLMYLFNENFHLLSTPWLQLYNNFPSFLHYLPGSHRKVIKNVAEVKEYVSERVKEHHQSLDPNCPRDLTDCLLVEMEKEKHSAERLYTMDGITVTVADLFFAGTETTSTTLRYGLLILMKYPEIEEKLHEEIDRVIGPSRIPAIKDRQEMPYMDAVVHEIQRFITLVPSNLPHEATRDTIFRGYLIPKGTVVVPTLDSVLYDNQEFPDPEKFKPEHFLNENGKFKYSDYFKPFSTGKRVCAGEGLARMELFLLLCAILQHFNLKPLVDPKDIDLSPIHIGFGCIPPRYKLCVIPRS

COc1ccc2[nH]c([S+]([O-])Cc3ncc(C)c(OC)c3C)nc2n1 (stereo not drawn) [tenatoprazole, Tenatoprazole]
sulfoxidation of tenatoprazole by CYP2C19 (human CYP2C19 [1]; recombinant CYP2C19, substrate tenatoprazole): did not catalyze | tenatoprazole remained ([2]; HLM reaction mixture without NADPH, after 12 h): 4.4% | tenatoprazole remained ([2]; HLMs, presence of NADPH, 12 h of incubation, 37 °C): 1.0% | product formed from tenatoprazole sulfide (% of substrate) ([2]; substrate tenatoprazole sulfide 500 μM, HLMs, presence of NADPH, after 12 h): 0.49% | plasma half-life, times longer than those of other PPI drugs [3]: ~7 times

COc1ccc2[nH]c([S+]([O-])Cc3ncc(C)c(OC)c3C)nc2c1 (stereo not drawn) [omeprazole, Omeprazole]
spontaneous or nonenzymatic degradation to omeprazole sulfide [4]: not spontaneously or nonenzymatically degraded

COc1ccc2[nH]c(SCc3ncc(CO)c(OC)c3C)nc2n1 [5′-OH tenatoprazole sulfide]
kcat of product formation (human CYP2C19 [1]; substrate tenatoprazole (1–500 μM), recombinant CYP2C19 0.20 μM, 37 °C, 5 min, label = product formed): 0.0333 s⁻¹ and 0.0333 ± 0.0017 s⁻¹ | formation rate of metabolite (CYP2A6): < 0.05 nmol product/min/nmol P450 | formation rate of metabolite (CYP2D6): 0.3 min⁻¹ | formation rate of metabolite (CYP1A2): < 0.05 nmol product/min/nmol P450 | formation rate of metabolite (CYP2C9): 0.1 min⁻¹ | formation rate of metabolite (CYP2E1): < 0.05 nmol product/min/nmol P450 | formation rate of metabolite (CYP1B1): < 0.05 nmol product/min/nmol P450

COc1ccc2[nH]c([S@@+]([O-])Cc3ncc(C)c(OC)c3C)nc2n1 [S-tenatoprazole]
kcat of product formation (human CYP3A4): 0.045 s⁻¹ and 0.045 ± 0.0033 s⁻¹ | rate of metabolism of S-isomer relative to R-isomer (human CYP2C19 [5]): around seven times more slowly
